Test results: PMC7824550 (Biomolecules, 2020)
Where two headings read alike, the source gives them in different places.

Key:
cathepsin K = molecular target: T1, cathepsin K (Homo sapiens, UniProt P43235); assay: Inhibition of cathepsin K (results not shown); type: biochemical; conditions: confirmed in the authors' laboratory
T1 sequence (P43235 115-329): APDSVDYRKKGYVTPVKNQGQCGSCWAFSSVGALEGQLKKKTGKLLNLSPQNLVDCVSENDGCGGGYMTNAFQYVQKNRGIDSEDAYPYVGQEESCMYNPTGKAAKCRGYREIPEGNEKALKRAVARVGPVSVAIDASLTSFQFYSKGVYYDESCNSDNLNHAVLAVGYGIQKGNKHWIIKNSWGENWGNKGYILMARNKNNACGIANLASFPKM

human cathepsin B [1] = molecular target: T2, human cathepsin B (Homo sapiens, UniProt P07858); assay: Inhibition of peptidyl-dipeptidase activity of cathepsin B, substrate Abz-Gly-Ile-Val-Arg-Ala-Lys(Dnp)-OH; type: biochemical; set-up: made in house; conditions: pH 5.5, [S] = Km, read-out: IC50, peptidyl-peptidase activity of cathepsin B
Description: In addition, the peptidyl-dipeptidase activity of cathepsin B was measured with the internally quenched fluorigenic substrate Abz-Gly-Ile-Val-Arg-Ala-Lys(Dnp)-OH. Cleavage of this substrate was assessed at λex = 370 nm and λem = 430 nm. […] Nevertheless, appropriate correction of the inner filter effect was performed for all compounds according to the following reference.
For linear (complete) inhibitors, v∞ = 0.

human cathepsin L = molecular target: T3, human cathepsin L (Homo sapiens, UniProt P07711); assay: Inhibition of cathepsin L, fluorogenic substrate Z-Leu-Arg-AMC; type: biochemical; conditions: for Mechanism of inhibition of cathepsin L / Ki: pH 5.5
T3 construct: made in house
T3 sequence (P07711 114-333): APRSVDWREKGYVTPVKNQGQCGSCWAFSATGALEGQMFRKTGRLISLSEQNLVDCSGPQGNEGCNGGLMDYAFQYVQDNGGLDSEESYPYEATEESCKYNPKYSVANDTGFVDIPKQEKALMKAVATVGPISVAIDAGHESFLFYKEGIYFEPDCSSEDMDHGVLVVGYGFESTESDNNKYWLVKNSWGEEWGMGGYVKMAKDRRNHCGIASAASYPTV

human cathepsin B [2] = molecular target: T2, human cathepsin B; assay: Inhibition of cathepsin B, fluorogenic substrate Z-Phe-Arg-AMC; conditions: for Ki: cathepsin B
[3] = Solubility under the experimental conditions used; type: physicochemical; conditions: assay buffer of the cathepsin L inhibition screening, aqueous buffer; under the experimental conditions used (pH 5.5 assay buffer); read-out: Limited solubility
Description: The kinetic characterization of CA, CAPE, and CGA was initially performed under the same conditions as the inhibition screening (pH 5.5). All compounds acted as fast, linear inhibitors of cathepsin L, as observed for DPPI [17]. Kinetic mechanisms and inhibition parameters were determined by a combination of titration curves (plots of the residual enzyme activity (vX/v0) against the inhibitor concentration) and replots of the experimental data as specific velocity plots. The remaining titration curves were collected in Supplementary Figure S1. […] However, a more precise characterization of its effect was made difficult by its limited solubility of only up to about 200 μM under the experimental conditions used.

[4] = tested on: dipeptidyl-peptidase I (DPPI); set-up: method as in PMID 31574257; conditions: previously characterized; cited from earlier work
[5] = catalytic (uncompetitive) inhibition constant, read-out: KCa, cathepsin L
[6] = specific (competitive) inhibition constant, read-out: KSp, cathepsin L
[7] = KCa, pH 5.5, catalytic (uncompetitive) inhibition constant
[8] = KCa, pH 7.4, catalytic (uncompetitive) inhibition constant
[9] = KSp, pH 7.4, specific (competitive) inhibition constant
[10] = KSp, pH 5.5, specific (competitive) inhibition constant

SMILES	Inhibition of cathepsin K (cathepsin K)	IC50 (human cathepsin B [1])	IC50 (human cathepsin L)	Mechanism of inhibition of cathepsin L (human cathepsin L)	Ki (human cathepsin L; [5])	Ki (human cathepsin L; [6])	IC50 (human cathepsin B [2])	Ki (human cathepsin B [2]; [7])	Ki (human cathepsin B [2]; [8])	Ki (human cathepsin B [2]; [9])	Mechanism of inhibition of cathepsin B (human cathepsin B [2]; pH 5.5)	Mechanism of inhibition of cathepsin B (human cathepsin B [2]; pH 7.4)	solubility [3]	Ki (human cathepsin B [2]; [10])	Mechanism of inhibition of DPPI [4]
O=C(/C=C/c1ccc(O)c(O)c1)OCCc1ccccc1 [Caffeic acid phenethyl ester, caffeic acid phenethyl ester]	no inhibition	100 ± 20 µM	190 ± 30 µM	Mixed	170 ± 30 µM	120 ± 70 µM	470 ± 30 µM	140 ± 10 µM	70 ± 19 µM	107 ± 38 µM	Catalytic	Mixed	~200 µM		
O=C(O)C=Cc1ccc(O)c(O)c1 [Caffeic acid, 3,4-dihydroxycinnamic acid]	no inhibition	> 1000 µM	> 1000 µM	Mixed	1270 ± 120 µM	740 ± 70 µM	110 ± 10 µM	82 ± 16 µM	46 ± 4 µM			Catalytic		270 ± 140 µM	linear, mixed balanced
O=C(O)C=Cc1ccc(O)cc1O [2,4-Dihydroxy-cinnamic acid, 2,4-dihydroxycinnamic acid]			930 ± 150 µM				910 ± 30 µM								
O=C(O)CCc1ccc(O)c(O)c1 [Hydrocaffeic acid, 3-(3,4-Dihydroxyphenyl) propionic acid]			> 1000 µM				> 1000 µM								
O=C(O)/C=C/c1ccccc1 [Cinnamic acid]			> 1000 µM				> 1000 µM								
O=C(O)C=Cc1ccc(O)cc1 [p-Coumaric acid]			> 1000 µM												
O=C(/C=C/c1ccc(O)c(O)c1)O[C@@H]1C[C@](O)(C(=O)O)C[C@@H](O)[C@H]1O [Chlorogenic acid, chlorogenic acid]		360 ± 60 µM	480 ± 20 µM	Mixed	670 ± 60 µM	330 ± 20 µM	340 ± 20 µM	1200 ± 1100 µM	92 ± 15 µM	92 ± 15 µM	Mixed	Mixed balanced		340 ± 80 µM	linear catalytic
O=C(O)/C=C/c1ccccc1O [o-Coumaric acid]			> 1000 µM				> 1000 µM								
